Tests used:
[1] = tested on: human breast adenocarcinoma cell line, MCF-7; assay: resazurin viability assay, 72 h (Table 1); format: cell-based; details: MCF7, 72h incubation, 156 nM-100 μM
Excerpt: (§1) In our experiments three different cell lines were used. Cells were purchased from the American Type Culture Collection (ATCC, Manassas, Va., USA). The human breast adenocarcinoma cell line, MCF-7 cells were maintained in Dulbecco's Modified Eagle Medium/Nutrient Mixture F-12 (DMEM/F12) 10% fetal calf serum (FCS, Gibco) and mouse mammary carcinoma 4T1 and human promyelocytic leukemia, HL-60 cells were maintained in Roswell Park Memorial Institute 1640 medium (RPMI-1640) 10% FCS. Media were supplemented with 2 mM GlutaMAX, and 100 U/mL penicillin, 100 μg/mL streptomycin (Life Technologies, Carlsbad, Calif., USA). Cell cultures were maintained at 37° C. in a humidified incubator in an atmosphere of 5% CO2 (Sanyo, Japan).
(§2) For viability assays cells were seeded in 96 well plates (MCF7 and 4T1: 6000, HL60: 120.000 cells/well) and incubated overnight. Compounds were dissolved in dimethyl sulfoxide (DMSO). Cells were treated with an increasing concentration of compounds having the general formula (I.) (156 nM-100 μM). Cell viability was determined after 72h incubation. Resazurin reagent (Sigma-Aldrich) was dissolved in PBS (pH 7.4) at 0.15 mg/ml concentration, sterile filtered (0.22 μm, Merck Millipore) and aliquoted at −20° C. Resazurin reagent (Sigma-Aldrich) was added at a final concentration of 25 μg/ml. After 2 hours incubation at 37° C. 5% CO2 fluorescence (530 nm excitation/580 nm emission) was recorded on a multimode microplate reader (Cytofluor4000, PerSeptive Biosytems). Viability was calculated with relation to untreated control cells and blank wells containing media without cells. IC50 values (50% inhibiting concentration) were calculated by GraphPad Prism® 5 (La Jolla, Calif., USA).

[2] = tested on: human promyelocytic leukemia, HL-60 cells; assay: resazurin viability assay, 72 h (Table 1); format: cell-based; details: 72h incubation, 156 nM-100 μM
Excerpt: as §1, §2

[3] = tested on: mouse mammary carcinoma 4T1; assay: resazurin viability assay, 72 h (Table 1); format: cell-based; details: 72h incubation, 156 nM-100 μM
Excerpt: as §1, §2

IC50 [1]	IC50 [2]	IC50 [3]	melting point	Structure (SMILES)
4.07 µM	2.95 µM	4.24 µM	148 to 149 °C	CC(C)(C)c1[nH]c2c(C(N)=O)cnn2c1NC1CCCCC1 [Example 18, 2-(Tert-butyl)-3-(cyclohexylamino)-1H-imidazo[1,2-b]pyrazole-7-carboxamide]
27.9 µM	4.99 µM	23.9 µM	221 °C	CC(C)(C)Nc1c(C(C)(C)C)[nH]c2c(C(N)=O)cnn12 [Example 19, 2-(Tert-butyl)-3-(tert-butylamino)-1H-imidazo[1,2-b]pyrazole-7-carboxamide]
> 50 µM	8.8 µM	> 50 µM	260 to 262 °C	COc1ccc(Nc2c(C(C)(C)C)[nH]c3c(C(N)=O)cnn23)cc1 [Example 20, 2-(Tert-butyl)-3-((4-methoxyphenyl)amino)-1H-imidazo[1,2-b]pyrazole-7-carboxamide]
40.5 µM	24.4 µM	> 50 µM	249 to 250 °C	CC(C)(C)c1[nH]c2c(C(N)=O)cnn2c1Nc1ccc(F)cc1 [Example 21, 2-(Tert-butyl)-3-((4-fluorophenyl)amino)-1H-imidazo[1,2-b]pyrazole-7-carboxamide]
> 50 µM	5.49 µM	> 50 µM	205 to 207 °C	CC(C)(C)CC(C)(C)Nc1c(C2CC2)[nH]c2c(C(N)=O)cnn12 [Example 23, 2-Cyclopropyl-3-((2,4,4-trimethylpentan-2-yl)amino)-1H-imidazo[1,2-b]pyrazole-7-carboxamide]
> 50 µM	27.9 µM	> 50 µM	207 to 209 °C	CCc1[nH]c2c(C(N)=O)cnn2c1NC(C)(C)CC(C)(C)C [Example 24, 2-Ethyl-3-((2,4,4-trimethylpentan-2-yl)amino)-1H-imidazo[1,2-b]pyrazole-7-carboxamide]
10.6 µM	7.79 µM	3.63 µM	132 to 134 °C	CC(C)c1[nH]c2c(C(N)=O)cnn2c1NC(C)(C)CC(C)(C)C [Example 25, 2-Isopropyl-3-((2,4,4-trimethylpentan-2-yl)amino)-1H-imidazo[1,2-b]pyrazole-7-carbox-amide]
8.29 µM	1.37 µM	9.95 µM	161 to 163 °C	C=CCC(C)(C)c1[nH]c2c(C(N)=O)cnn2c1NC(C)(C)CC(C)(C)C [Example 26, 2-(2-Methylpent-4-en-2-yl)-3-((2,4,4-trimethylpentan-2-yl)amino)-1H-imidazo[1,2-b]pyrazole-7-carboxamide]
18 µM	14.8 µM	11.6 µM	184 to 186 °C	CCC(CC)(CCC#N)c1[nH]c2c(C(N)=O)cnn2c1NC(C)(C)CC(C)(C)C [Example 27, 2-(1-Cyano-3-ethylpentan-3-yl)-3-((2,4,4-trimethylpentan-2-yl)amino)-1H-imidazo[1,2-b]pyrazole-7-carboxamide]
4.46 µM	1.52 µM	4.66 µM	173 to 174 °C	CNC(=O)c1cnn2c(NC(C)(C)CC(C)(C)C)c(C(C)(C)C)[nH]c12 [Example 28, 2-(Tert-butyl)-N-methyl-3-((2,4,4-trimethylpentan-2-yl)amino)-1H-imidazo[1,2-b]pyrazole-7-carboxamide]
34.1 µM	2.72 µM	> 50 µM	147 to 148 °C	CCCCNC(=O)c1cnn2c(NC(C)(C)CC(C)(C)C)c(C(C)(C)C)[nH]c12 [Example 29, 2-(Tert-butyl)-N-butyl-3-((2,4,4-trimethylpentan-2-yl)amino)-1H-imidazo[1,2-b]pyrazole-7-carboxamide]
1.69 µM	1.61 µM	4.01 µM	161 °C	CC(C)(C)CC(C)(C)Nc1c(C(C)(C)C)[nH]c2c(C(=O)NC3CC3)cnn12 [Example 31, 2-(Tert-butyl)-N-cyclopropyl-3-((2,4,4-trimethylpentan-2-yl)amino)-1H-imidazo[1,2-b]pyrazole-7-carboxamide]
8.57 µM	6.26 µM	9.31 µM	118 to 119 °C	CC(C)(C)CC(C)(C)Nc1c(C(C)(C)C)[nH]c2c(C(=O)NCc3ccccc3)cnn12 [Example 33, N-Benzyl-2-(tert-butyl)-3-((2,4,4-trimethylpentan-2-yl)amino)-1H-imidazo[1,2-b]pyrazole-7-carboxamide]
18.3 µM	0.604 µM	28.5 µM	147 °C	CC(C)(C)CC(C)(C)Nc1c(C(C)(C)C)[nH]c2c(C(=O)Nc3ccccc3)cnn12 [Example 34, 2-(Tert-butyl)-N-phenyl-3-((2,4,4-trimethylpentan-2-yl)amino)-1H-imidazo[1,2-b]pyrazole-7-carboxamide]
8.35 µM	4.38 µM	6.91 µM	144 to 145 °C	CC(C)(C)CC(C)(C)Nc1c(C(C)(C)C)[nH]c2c(C(=O)Nc3ccccn3)cnn12 [Example 35, 2-(Tert-butyl)-N-(pyridin-2-yl)-3-((2,4,4-trimethylpentan-2-yl)amino)-1H-imidazo[1,2-b]pyrazole-7-carboxamide]
1.9 µM	0.934 µM	2.59 µM	186 to 187 °C	CC(C)(C)CC(C)(C)Nc1c(C(C)(C)C)[nH]c2c(C(=O)Nc3cccnc3)cnn12 [Example 36, 2-(Tert-butyl)-N-(pyridin-3-yl)-3-((2,4,4-trimethylpentan-2-yl)amino)-1H-imidazo[1,2-b]pyrazole-7-carboxamide]
2.55 µM	2.71 µM	4.34 µM	185 to 186 °C	CC(C)(C)CC(C)(C)Nc1c(C(C)(C)C)[nH]c2c(C(=O)Nc3ccncc3)cnn12 [Example 37, 2-(Tert-butyl)-N-(pyridin-4-yl)-3-((2,4,4-trimethylpentan-2-yl)amino)-1H-imidazo[1,2-b]pyrazole-7-carboxamide]
1.95 µM	2.86 µM	2.41 µM	125 to 127 °C	CC(C)(C)CC(C)(C)Nc1c(C(C)(C)C)[nH]c2c(C(=O)Nc3nccs3)cnn12 [Example 38, 2-(Tert-butyl)-N-(thiazol-2-yl)-3-((2,4,4-trimethylpentan-2-yl)amino)-1H-imidazo[1,2-b]pyrazole-7-carboxamide]
1.7 µM	0.935 µM	2.85 µM	185 to 186 °C	CC(C)(C)CC(C)(C)Nc1c(C(C)(C)C)[nH]c2c(C(=O)Nc3ccon3)cnn12 [Example 39, 2-(Tert-butyl)-N-(isoxazol-3-yl)-3-((2,4,4-trimethylpentan-2-yl)amino)-1H-imidazo[1,2-b]pyrazole-7-carboxamide]
30.6 µM	2.12 µM	> 50 µM	172 °C	Cc1ccccc1NC(=O)c1cnn2c(NC(C)(C)CC(C)(C)C)c(C(C)(C)C)[nH]c12 [Example 40, 2-(Tert-butyl)-N-(o-tolyl)-3-((2,4,4-trimethylpentan-2-yl)amino)-1H-imidazo[1,2-b]pyrazole-7-carboxamide]
17.8 µM	1.11 µM	24.7 µM	187 to 188 °C	COc1ccc(NC(=O)c2cnn3c(NC(C)(C)CC(C)(C)C)c(C(C)(C)C)[nH]c23)cc1 [Example 43, 2-(Tert-butyl)-N-(4-methoxyphenyl)-3-((2,4,4-trimethylpentan-2-yl)amino)-1H-imidazo[1,2-b]pyrazole-7-carboxamide]
> 50 µM	11.4 µM	35.4 µM	180 °C	CC(C)(C)CC(C)(C)Nc1c(C(C)(C)C)[nH]c2c(C(=O)Nc3cccc(C(F)(F)F)c3)cnn12 [Example 46, 2-(Tert-butyl)-N-(3-(trifluoromethyl)phenyl)-3-((2,4,4-trimethylpentan-2-yl)amino)-1H-imidazo[1,2-b]pyrazole-7-carboxamide]
29 µM	> 50 µM	> 50 µM	155 to 156 °C	CC(C)(C)CC(C)(C)Nc1c(C(C)(C)C)[nH]c2c(C(=O)Nc3ccc(C(F)(F)F)cc3)cnn12 [Example 47, 2-(Tert-butyl)-N-(4-(trifluoromethyl)phenyl)-3-((2,4,4-trimethylpentan-2-yl)amino)-1H-imidazo[1,2-b]pyrazole-7-carboxamide]
> 50 µM	2.04 µM	> 50 µM	153 to 154 °C	CC(C)(C)CC(C)(C)Nc1c(C(C)(C)C)[nH]c2c(C(=O)Nc3ccccc3F)cnn12 [Example 48, 2-(Tert-butyl)-N-(2-fluorophenyl)-3-((2,4,4-trimethylpentan-2-yl)amino)-1H-imidazo[1,2-b]pyrazole-7-carboxamide]
